The values that follow are results of earlier work, collected in publication PMC6625762 (Bioorganic & medicinal chemistry letters, 2019).

For the substance “NMeAla-Tle-(4S)-4-phenoxy-Pro-(R)-tetrahydronaphth-1-yl-amide”, the Kd was 5 nM.
